Experimental data reported in patent publication US9340590B2 (priority 2011, dated 2016).
Like-named read-outs stand apart in the source and are kept apart here. Positions of bridges follow the written chain, without caps; N, C: chain ends. Non-standard residues stand in square brackets, D forms with d. Residues, ends and D or L forms follow the SMILES beside them. Phe(4-COOH) = N[C@@H](Cc1ccc(C(=O)O)cc1)C(=O)O; NMeW = CN[C@@H](Cc1c[nH]c2ccccc12)C(=O)O; NMeF = CN[C@@H](Cc1ccccc1)C(=O)O; Cha = N[C@@H](CC1CCCCC1)C(=O)O; Phg = N[C@H](C(=O)O)c1ccccc1

Assays:
Assay in all cases: cell-based
[1] = biological target: hNav1.5 (Homo sapiens, UniProt Q14524); details: IonWorks Quattro, use, […], read-out: IWQ Use Nav1.5
Sequence of hNav1.5 (Q14524 whole entry, looked up): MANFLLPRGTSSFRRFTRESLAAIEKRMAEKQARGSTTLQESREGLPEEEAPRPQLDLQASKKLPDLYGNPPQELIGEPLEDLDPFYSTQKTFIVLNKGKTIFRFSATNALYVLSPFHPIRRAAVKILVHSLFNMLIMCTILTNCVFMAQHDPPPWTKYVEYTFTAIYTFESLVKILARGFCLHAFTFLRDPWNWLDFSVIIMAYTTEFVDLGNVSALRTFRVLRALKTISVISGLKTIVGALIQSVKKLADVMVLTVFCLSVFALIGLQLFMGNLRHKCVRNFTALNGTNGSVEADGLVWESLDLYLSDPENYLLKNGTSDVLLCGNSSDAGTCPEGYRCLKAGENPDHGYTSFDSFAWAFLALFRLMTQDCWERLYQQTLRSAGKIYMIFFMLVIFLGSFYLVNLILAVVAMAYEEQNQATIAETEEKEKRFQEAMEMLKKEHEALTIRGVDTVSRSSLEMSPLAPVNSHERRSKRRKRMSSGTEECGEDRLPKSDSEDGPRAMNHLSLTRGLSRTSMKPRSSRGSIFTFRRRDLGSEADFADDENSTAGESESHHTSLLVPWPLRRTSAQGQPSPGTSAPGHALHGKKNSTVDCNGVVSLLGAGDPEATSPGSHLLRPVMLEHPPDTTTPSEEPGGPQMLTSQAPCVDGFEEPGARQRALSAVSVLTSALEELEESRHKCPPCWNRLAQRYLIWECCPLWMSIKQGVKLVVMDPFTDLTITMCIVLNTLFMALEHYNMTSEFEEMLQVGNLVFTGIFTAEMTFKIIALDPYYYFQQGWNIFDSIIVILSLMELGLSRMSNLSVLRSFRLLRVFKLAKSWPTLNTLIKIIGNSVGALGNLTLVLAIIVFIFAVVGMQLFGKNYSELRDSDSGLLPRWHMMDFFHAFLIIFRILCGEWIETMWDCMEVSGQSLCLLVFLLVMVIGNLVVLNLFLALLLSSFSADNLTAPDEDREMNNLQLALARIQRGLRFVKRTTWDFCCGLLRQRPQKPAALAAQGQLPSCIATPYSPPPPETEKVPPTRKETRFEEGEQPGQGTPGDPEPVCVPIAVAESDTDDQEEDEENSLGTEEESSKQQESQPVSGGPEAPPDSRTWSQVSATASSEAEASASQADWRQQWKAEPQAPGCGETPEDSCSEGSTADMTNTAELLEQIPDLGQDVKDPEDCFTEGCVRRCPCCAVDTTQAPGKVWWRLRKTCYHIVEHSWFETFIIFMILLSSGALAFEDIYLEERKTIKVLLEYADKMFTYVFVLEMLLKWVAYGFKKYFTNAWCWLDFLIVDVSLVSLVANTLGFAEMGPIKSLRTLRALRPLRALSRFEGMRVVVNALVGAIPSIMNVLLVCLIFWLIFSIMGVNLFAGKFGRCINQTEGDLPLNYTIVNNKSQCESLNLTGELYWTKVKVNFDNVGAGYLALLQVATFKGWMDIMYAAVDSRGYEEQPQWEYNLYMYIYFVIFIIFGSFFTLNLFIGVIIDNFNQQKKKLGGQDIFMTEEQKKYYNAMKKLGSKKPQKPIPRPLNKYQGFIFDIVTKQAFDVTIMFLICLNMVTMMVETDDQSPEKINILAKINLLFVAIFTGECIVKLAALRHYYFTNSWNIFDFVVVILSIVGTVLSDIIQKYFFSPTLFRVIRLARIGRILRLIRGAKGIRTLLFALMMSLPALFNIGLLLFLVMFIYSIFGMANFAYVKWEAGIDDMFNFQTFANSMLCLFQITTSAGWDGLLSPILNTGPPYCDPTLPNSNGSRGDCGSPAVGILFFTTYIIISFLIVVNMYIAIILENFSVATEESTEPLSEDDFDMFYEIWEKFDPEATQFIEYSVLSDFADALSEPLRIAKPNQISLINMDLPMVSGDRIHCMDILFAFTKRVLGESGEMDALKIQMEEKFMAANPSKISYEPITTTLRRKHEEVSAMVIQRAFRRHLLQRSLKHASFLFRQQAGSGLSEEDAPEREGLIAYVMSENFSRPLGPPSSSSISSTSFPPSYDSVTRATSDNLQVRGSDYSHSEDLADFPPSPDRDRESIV

[2] = biological target: hNav1.3 (Homo sapiens, UniProt Q9NY46); details: IonWorks Quattro, use, […], read-out: IWQ Use Nav1.3
Sequence of hNav1.3 (Q9NY46 whole entry, looked up): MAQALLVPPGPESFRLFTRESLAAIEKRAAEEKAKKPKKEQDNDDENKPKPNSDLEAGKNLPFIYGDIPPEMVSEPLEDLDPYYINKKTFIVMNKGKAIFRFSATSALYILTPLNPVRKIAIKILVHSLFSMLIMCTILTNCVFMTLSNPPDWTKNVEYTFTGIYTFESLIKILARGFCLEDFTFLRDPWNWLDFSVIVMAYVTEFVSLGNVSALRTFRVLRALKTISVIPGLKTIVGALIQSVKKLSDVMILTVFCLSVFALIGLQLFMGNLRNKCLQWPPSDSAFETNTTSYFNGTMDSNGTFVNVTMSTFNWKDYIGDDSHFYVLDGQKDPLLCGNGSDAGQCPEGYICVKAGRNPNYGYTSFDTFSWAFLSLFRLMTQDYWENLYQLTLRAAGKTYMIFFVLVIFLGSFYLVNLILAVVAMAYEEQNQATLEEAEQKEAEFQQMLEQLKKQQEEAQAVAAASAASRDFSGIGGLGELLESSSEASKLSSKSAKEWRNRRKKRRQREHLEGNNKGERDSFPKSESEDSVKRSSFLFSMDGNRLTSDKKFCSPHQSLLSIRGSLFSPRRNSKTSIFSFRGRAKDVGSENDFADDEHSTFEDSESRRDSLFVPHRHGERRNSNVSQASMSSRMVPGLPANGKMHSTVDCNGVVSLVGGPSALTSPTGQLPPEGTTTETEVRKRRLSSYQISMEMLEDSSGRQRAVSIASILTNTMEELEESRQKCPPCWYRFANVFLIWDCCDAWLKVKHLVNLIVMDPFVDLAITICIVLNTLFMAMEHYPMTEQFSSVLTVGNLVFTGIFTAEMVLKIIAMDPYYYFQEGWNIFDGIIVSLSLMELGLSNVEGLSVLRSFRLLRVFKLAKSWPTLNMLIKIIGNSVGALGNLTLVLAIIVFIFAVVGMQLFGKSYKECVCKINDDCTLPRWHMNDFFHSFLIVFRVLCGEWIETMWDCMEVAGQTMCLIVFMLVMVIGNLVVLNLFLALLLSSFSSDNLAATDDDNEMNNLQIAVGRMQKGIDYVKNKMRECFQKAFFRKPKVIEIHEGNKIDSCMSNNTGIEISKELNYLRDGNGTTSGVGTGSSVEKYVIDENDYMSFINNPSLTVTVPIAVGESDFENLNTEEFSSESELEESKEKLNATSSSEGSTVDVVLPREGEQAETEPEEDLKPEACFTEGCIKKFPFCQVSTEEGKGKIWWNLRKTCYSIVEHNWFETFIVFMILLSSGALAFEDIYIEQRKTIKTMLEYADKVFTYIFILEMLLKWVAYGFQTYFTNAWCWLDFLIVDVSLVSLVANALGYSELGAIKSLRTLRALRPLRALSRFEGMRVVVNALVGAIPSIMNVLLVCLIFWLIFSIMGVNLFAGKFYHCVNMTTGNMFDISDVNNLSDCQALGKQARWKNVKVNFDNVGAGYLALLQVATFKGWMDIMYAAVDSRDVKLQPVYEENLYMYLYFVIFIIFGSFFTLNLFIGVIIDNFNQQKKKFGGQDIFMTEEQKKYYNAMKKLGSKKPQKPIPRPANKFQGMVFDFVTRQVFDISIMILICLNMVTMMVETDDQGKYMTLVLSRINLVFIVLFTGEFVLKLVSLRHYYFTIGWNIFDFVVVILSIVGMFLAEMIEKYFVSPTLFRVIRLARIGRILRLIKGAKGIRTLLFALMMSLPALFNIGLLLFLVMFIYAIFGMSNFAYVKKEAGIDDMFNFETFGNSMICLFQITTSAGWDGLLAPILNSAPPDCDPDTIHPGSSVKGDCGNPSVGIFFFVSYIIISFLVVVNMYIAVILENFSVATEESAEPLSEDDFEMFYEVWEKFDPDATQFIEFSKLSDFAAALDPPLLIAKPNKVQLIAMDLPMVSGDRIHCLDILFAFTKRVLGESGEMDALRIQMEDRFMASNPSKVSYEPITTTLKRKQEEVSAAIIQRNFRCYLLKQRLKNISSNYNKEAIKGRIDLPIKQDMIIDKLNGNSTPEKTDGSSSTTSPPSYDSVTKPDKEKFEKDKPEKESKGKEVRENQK

[3] = biological target: hNav1.7 (Homo sapiens, UniProt Q15858); format: cell-based; details: IonWorks Quattro, use, […], read-out: IWQ Use Nav1.7

## CC[C@H](C)[C@@H]1NC(=O)[C@@H]2CSSC[C@@H]3NC(=O)[C@H](C(C)C)NC(=O)[C@H](CC(C)C)NC(=O)[C@H](CC(N)=O)NC(=O)[C@@H]4CCCN4C(=O)[C@H](CCCNC(=N)N)NC(=O)[C@H](CSSC[C@H](NC(=O)[C@@H](N)CC(=O)O)C(=O)N[C@@H](CC(C)C)C(=O)NCC(=O)N[C@@H](Cc4ccccc4)C(=O)N[C@@H](CCSC)C(=O)N[C@@H](CCCNC(=N)N)C(=O)N[C@@H](CCCCN)C(=O)N2)NC(=O)[C@H](CSSC[C@@H](C(=O)N[C@@H](CCCCN)C(=O)N[C@@H](Cc2ccc(C(=O)O)cc2)C(=O)N[C@H](C(=O)N[C@@H](Cc2ccccc2)C(N)=O)C(C)C)NC(=O)[C@H](Cc2c[nH]c4ccccc24)NC(=O)[C@H](CCCCN)NC(=O)[C@H](Cc2c[nH]cn2)NC(=O)[C@H]([C@@H](C)O)NC(=O)[C@H](CCCNC(=N)N)NC(=O)[C@H](CO)NC3=O)NC(=O)[C@H](CCCCN)NC(=O)[C@H](CC(=O)O)NC(=O)[C@H](CC(N)=O)NC(=O)[C@H](CC(=O)O)NC(=O)[C@@H]2CCCN2C1=O [compound 385] (H-DCLGFMRKCIPDNDKCCRPNLVCSRTHKWCK[Phe(4-COOH)]VF-NH2; disulfide 2-17, 9-23, 16-30)
[1]; Table 25
  IC50: 7700 nM
[2]; Table 25
  IC50: 4050 nM
[3]; Table 25
  IC50: 11400 nM

## CC[C@H](C)[C@@H]1NC(=O)[C@@H]2CSSC[C@@H]3NC(=O)[C@H](C(C)C)NC(=O)[C@H](CC(C)C)NC(=O)[C@H](CC(N)=O)NC(=O)[C@@H]4CCCN4C(=O)[C@H](CCCNC(=N)N)NC(=O)[C@H](CSSC[C@H](NC(=O)[C@@H](N)CC(=O)O)C(=O)N[C@@H](CC(C)C)C(=O)NCC(=O)N[C@@H](Cc4ccccc4)C(=O)N[C@@H](CCSC)C(=O)N[C@@H](CCCNC(=N)N)C(=O)N[C@@H](CCCCN)C(=O)N2)NC(=O)[C@H](CSSC[C@@H](C(=O)N[C@@H](CCCCN)C(=O)N[C@@H](Cc2ccc(O)cc2)C(=O)N[C@@H](CC2CCCCC2)C(=O)N[C@@H](Cc2ccccc2)C(N)=O)NC(=O)[C@H](Cc2c[nH]c4ccccc24)NC(=O)[C@H](CCCCN)NC(=O)[C@H](Cc2c[nH]cn2)NC(=O)[C@H]([C@@H](C)O)NC(=O)[C@H](CCCNC(=N)N)NC(=O)[C@H](CO)NC3=O)NC(=O)[C@H](CCCCN)NC(=O)[C@H](CC(=O)O)NC(=O)[C@H](CC(N)=O)NC(=O)[C@H](CC(=O)O)NC(=O)[C@@H]2CCCN2C1=O [compound 386] (H-DCLGFMRKCIPDNDKCCRPNLVCSRTHKWCKY[Cha]F-NH2; disulfide 2-17, 9-23, 16-30)
[1]; Table 26
  IC50: 12200 nM
[2]; Table 26
  IC50: 70 nM
[3]; Table 26
  IC50: 70 nM

## CC[C@H](C)[C@@H]1NC(=O)[C@@H]2CSSC[C@@H]3NC(=O)[C@H](C(C)C)NC(=O)[C@H](CC(C)C)NC(=O)[C@H](CC(N)=O)NC(=O)[C@@H]4CCCN4C(=O)[C@H](CCCNC(=N)N)NC(=O)[C@H](CSSC[C@H](NC(=O)[C@@H](N)CC(=O)O)C(=O)N[C@@H](CC(C)C)C(=O)NCC(=O)N[C@@H](Cc4ccccc4)C(=O)N[C@@H](CCSC)C(=O)N[C@@H](CCCNC(=N)N)C(=O)N[C@@H](CCCCN)C(=O)N2)NC(=O)[C@H](CSSC[C@@H](C(=O)N[C@@H](CCCCN)C(=O)N[C@@H](Cc2ccc(O)cc2)C(=O)N(C)[C@@H](Cc2ccccc2)C(=O)N[C@@H](Cc2ccccc2)C(N)=O)NC(=O)[C@H](Cc2c[nH]c4ccccc24)NC(=O)[C@H](CCCCN)NC(=O)[C@H](Cc2c[nH]cn2)NC(=O)[C@H]([C@@H](C)O)NC(=O)[C@H](CCCNC(=N)N)NC(=O)[C@H](CO)NC3=O)NC(=O)[C@H](CCCCN)NC(=O)[C@H](CC(=O)O)NC(=O)[C@H](CC(N)=O)NC(=O)[C@H](CC(=O)O)NC(=O)[C@@H]2CCCN2C1=O [compound 388] (H-DCLGFMRKCIPDNDKCCRPNLVCSRTHKWCKY[NMeF]F-NH2; disulfide 2-17, 9-23, 16-30)
[1]; Table 26
  IC50: > 5000 nM
[2]; Table 26
  IC50: 1090 nM
[3]; Table 26
  IC50: 1280 nM

## CC[C@H](C)[C@@H]1NC(=O)[C@@H]2CSSC[C@@H]3NC(=O)[C@H](C(C)C)NC(=O)[C@H](CC(C)C)NC(=O)[C@H](CC(N)=O)NC(=O)[C@@H]4CCCN4C(=O)[C@H](CCCNC(=N)N)NC(=O)[C@H](CSSC[C@H](NC(=O)[C@@H](N)CC(=O)O)C(=O)N[C@@H](CC(C)C)C(=O)NCC(=O)N[C@@H](Cc4ccccc4)C(=O)N[C@@H](CCSC)C(=O)N[C@@H](CCCNC(=N)N)C(=O)N[C@@H](CCCCN)C(=O)N2)NC(=O)[C@H](CSSC[C@@H](C(=O)N[C@@H](CCCCN)C(=O)N[C@@H](Cc2ccc(O)cc2)C(=O)N(C)[C@@H](Cc2c[nH]c4ccccc24)C(=O)N[C@@H](Cc2ccccc2)C(N)=O)NC(=O)[C@H](Cc2c[nH]c4ccccc24)NC(=O)[C@H](CCCCN)NC(=O)[C@H](Cc2c[nH]cn2)NC(=O)[C@H]([C@@H](C)O)NC(=O)[C@H](CCCNC(=N)N)NC(=O)[C@H](CO)NC3=O)NC(=O)[C@H](CCCCN)NC(=O)[C@H](CC(=O)O)NC(=O)[C@H](CC(N)=O)NC(=O)[C@H](CC(=O)O)NC(=O)[C@@H]2CCCN2C1=O [compound 389] (H-DCLGFMRKCIPDNDKCCRPNLVCSRTHKWCKY[NMeW]F-NH2; disulfide 2-17, 9-23, 16-30)
[1]; Table 26
  IC50: > 5000 nM
[2]; Table 26
  IC50: 290 nM
[3]; Table 26
  IC50: 350 nM

## CC[C@H](C)[C@@H]1NC(=O)[C@@H]2CSSC[C@@H]3NC(=O)[C@H](C(C)C)NC(=O)[C@H](CC(C)C)NC(=O)[C@H](CC(N)=O)NC(=O)[C@@H]4CCCN4C(=O)[C@H](CCCNC(=N)N)NC(=O)[C@H](CSSC[C@H](NC(=O)[C@@H](N)CC(=O)O)C(=O)N[C@@H](CC(C)C)C(=O)NCC(=O)N[C@@H](Cc4ccccc4)C(=O)N[C@@H](CCSC)C(=O)N[C@@H](CCCNC(=N)N)C(=O)N[C@@H](CCCCN)C(=O)N2)NC(=O)[C@H](CSSC[C@@H](C(=O)N[C@@H](CCCCN)C(=O)N[C@@H](Cc2ccc(O)cc2)C(=O)N[C@@H](Cc2ccccc2)C(=O)N[C@@H](Cc2ccccc2)C(N)=O)NC(=O)[C@H](Cc2c[nH]c4ccccc24)NC(=O)[C@H](CCCCN)NC(=O)[C@H](Cc2c[nH]cn2)NC(=O)[C@H]([C@@H](C)O)NC(=O)[C@H](CCCNC(=N)N)NC(=O)[C@H](CO)NC3=O)NC(=O)[C@H](CCCCN)NC(=O)[C@H](CC(=O)O)NC(=O)[C@H](CC(N)=O)NC(=O)[C@H](CC(=O)O)NC(=O)[C@@H]2CCCN2C1=O [compound 390] (H-DCLGFMRKCIPDNDKCCRPNLVCSRTHKWCKYFF-NH2; disulfide 2-17, 9-23, 16-30)
[1]; Table 26
  IC50: 8660 nM
[2]; Table 26
  IC50: 40 nM
[3]; Table 26
  IC50: 60 nM

## CC[C@H](C)[C@@H]1NC(=O)[C@@H]2CSSC[C@@H]3NC(=O)[C@H](C(C)C)NC(=O)[C@H](CC(C)C)NC(=O)[C@H](CC(N)=O)NC(=O)[C@@H]4CCCN4C(=O)[C@H](CCCNC(=N)N)NC(=O)[C@H](CSSC[C@H](NC(=O)[C@@H](N)CC(=O)O)C(=O)N[C@@H](CC(C)C)C(=O)NCC(=O)N[C@@H](Cc4ccccc4)C(=O)N[C@@H](CCSC)C(=O)N[C@@H](CCCNC(=N)N)C(=O)N[C@@H](CCCCN)C(=O)N2)NC(=O)[C@H](CSSC[C@@H](C(=O)N[C@@H](CCCCN)C(=O)N[C@@H](Cc2ccc(O)cc2)C(=O)N[C@@H](CCSC)C(=O)N[C@@H](Cc2ccccc2)C(N)=O)NC(=O)[C@H](Cc2c[nH]c4ccccc24)NC(=O)[C@H](CCCCN)NC(=O)[C@H](Cc2c[nH]cn2)NC(=O)[C@H]([C@@H](C)O)NC(=O)[C@H](CCCNC(=N)N)NC(=O)[C@H](CO)NC3=O)NC(=O)[C@H](CCCCN)NC(=O)[C@H](CC(=O)O)NC(=O)[C@H](CC(N)=O)NC(=O)[C@H](CC(=O)O)NC(=O)[C@@H]2CCCN2C1=O [compound 391] (H-DCLGFMRKCIPDNDKCCRPNLVCSRTHKWCKYMF-NH2; disulfide 2-17, 9-23, 16-30)
[1]; Table 26
  IC50: 15100 nM
[2]; Table 26
  IC50: 80 nM
[3]; Table 26
  IC50: 70 nM

## CC[C@H](C)[C@@H]1NC(=O)[C@@H]2CSSC[C@@H]3NC(=O)[C@H](C(C)C)NC(=O)[C@H](CC(C)C)NC(=O)[C@H](CC(N)=O)NC(=O)[C@@H]4CCCN4C(=O)[C@H](CCCNC(=N)N)NC(=O)[C@H](CSSC[C@H](NC(=O)[C@@H](N)CC(=O)O)C(=O)N[C@@H](CC(C)C)C(=O)NCC(=O)N[C@@H](Cc4ccccc4)C(=O)N[C@@H](CCSC)C(=O)N[C@@H](CCCNC(=N)N)C(=O)N[C@@H](CCCCN)C(=O)N2)NC(=O)[C@H](CSSC[C@@H](C(=O)N[C@@H](CCCCN)C(=O)N[C@@H](Cc2ccc(O)cc2)C(=O)N[C@@H](Cc2c[nH]cn2)C(=O)N[C@@H](Cc2ccccc2)C(N)=O)NC(=O)[C@H](Cc2c[nH]c4ccccc24)NC(=O)[C@H](CCCCN)NC(=O)[C@H](Cc2c[nH]cn2)NC(=O)[C@H]([C@@H](C)O)NC(=O)[C@H](CCCNC(=N)N)NC(=O)[C@H](CO)NC3=O)NC(=O)[C@H](CCCCN)NC(=O)[C@H](CC(=O)O)NC(=O)[C@H](CC(N)=O)NC(=O)[C@H](CC(=O)O)NC(=O)[C@@H]2CCCN2C1=O [compound 392] (H-DCLGFMRKCIPDNDKCCRPNLVCSRTHKWCKYHF-NH2; disulfide 2-17, 9-23, 16-30)
[1]; Table 26
  IC50: 8160 nM
[2]; Table 26
  IC50: 10 nM
[3]; Table 26
  IC50: 20 nM

## CC[C@H](C)[C@@H]1NC(=O)[C@@H]2CSSC[C@@H]3NC(=O)[C@H](C(C)C)NC(=O)[C@H](CC(C)C)NC(=O)[C@H](CC(N)=O)NC(=O)[C@@H]4CCCN4C(=O)[C@H](CCCNC(=N)N)NC(=O)[C@H](CSSC[C@H](NC(=O)[C@@H](N)CC(=O)O)C(=O)N[C@@H](CC(C)C)C(=O)NCC(=O)N[C@@H](Cc4ccccc4)C(=O)N[C@@H](CCSC)C(=O)N[C@@H](CCCNC(=N)N)C(=O)N[C@@H](CCCCN)C(=O)N2)NC(=O)[C@H](CSSC[C@@H](C(=O)N[C@@H](CCCCN)C(=O)N[C@@H](Cc2ccc(O)cc2)C(=O)N[C@H](C(=O)N[C@@H](Cc2ccccc2)C(N)=O)c2ccccc2)NC(=O)[C@H](Cc2c[nH]c4ccccc24)NC(=O)[C@H](CCCCN)NC(=O)[C@H](Cc2c[nH]cn2)NC(=O)[C@H]([C@@H](C)O)NC(=O)[C@H](CCCNC(=N)N)NC(=O)[C@H](CO)NC3=O)NC(=O)[C@H](CCCCN)NC(=O)[C@H](CC(=O)O)NC(=O)[C@H](CC(N)=O)NC(=O)[C@H](CC(=O)O)NC(=O)[C@@H]2CCCN2C1=O [compound 393] (H-DCLGFMRKCIPDNDKCCRPNLVCSRTHKWCKY[Phg]F-NH2; disulfide 2-17, 9-23, 16-30)
[1]; Table 26
  IC50: 7630 nM
[2]; Table 26
  IC50: 40 nM
[3]; Table 26
  IC50: 20 nM
